Data from article PMC8979346 (RSC Advances, 2022).

Key:
hCA IX = hCA IX (Homo sapiens, UniProt Q16790); test: biochemical; settings: for IC50: IC50 (μM) ± SEM CA IX, ± SEM
hCA II = hCA II (Homo sapiens, UniProt P00918); test: Carbonic anhydrase II inhibition activity; format: biochemical
hCA XII = hCA XII (Homo sapiens, UniProt O43570); test: Carbonic anhydrase XII inhibition activity; format: biochemical
Chain of hCA XII (O43570 25-354): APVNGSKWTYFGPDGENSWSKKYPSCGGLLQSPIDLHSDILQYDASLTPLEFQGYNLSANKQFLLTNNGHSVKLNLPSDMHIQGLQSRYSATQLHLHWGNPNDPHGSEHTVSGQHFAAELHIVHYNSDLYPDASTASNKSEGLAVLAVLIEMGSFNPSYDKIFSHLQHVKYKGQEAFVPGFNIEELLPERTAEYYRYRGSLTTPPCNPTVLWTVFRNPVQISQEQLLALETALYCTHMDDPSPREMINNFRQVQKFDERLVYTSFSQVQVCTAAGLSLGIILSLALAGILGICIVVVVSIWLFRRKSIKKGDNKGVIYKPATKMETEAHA

Row | Compound | IC50 (hCA IX; CA IX) | IC50 (hCA II) | IC50 (hCA XII) | also measured
1 | Cc1ccc(S(=O)(=O)Nc2cc(C)ccc2C)cc1 [Compound 3b, N-(2,5-Dimethylphenyl)-4-methylbenzenesulfonamide] | 1.65 ± 1.3 µM | – | 1030 ± 230 nM | –
2 | CCN(CC)c1ccc(NS(=O)(=O)c2ccc(C)cc2)cc1 [Compound 3e, N-(4-(Diethylamino)phenyl)-4-methylbenzenesulfonamide] | – | – | 630 ± 140 nM | % inhibition CA IX (hCA IX; CA IX, at 100 μM): 31%; inhibition at 100 µM (hCA IX; read-out: % inhibition CA IX, CA IX, at 100 μM): < 31%
3 | Cc1ccc(S(=O)(=O)NC(c2ccccc2)c2ccccc2)cc1 [Compound 3g, N-Benzhydryl-4-methylbenzenesulfonamide] | 0.78 ± 0.83 µM | 863 ± 540 nM | 1300 ± 780 nM | –
4 | Cc1ccc(S(=O)(=O)NNc2ccccc2)cc1 [Compound 3h, 4-Methyl-N′-phenylbenzenesulfonohydrazide] | 0.484 ± 1.4 µM | 520 ± 440 nM | 1080 ± 620 nM | –
5 | COc1ccc(S(=O)(=O)NNc2ccccc2)cc1 [Compound 3i, 4-Methoxy-N′-phenylbenzenesulfonohydrazide] | – | 2760 ± 1100 nM | – | % inhibition CA XII (hCA XII; CA XII, at 100 μM): 27%
6 | COc1ccc(S(=O)(=O)Nc2ccccc2)cc1 [Compound 3k, 4-Methoxy-N-phenylbenzenesulfonamide] | – | 1740 ± 540 nM | 1140 ± 370 nM | –
7 | COc1ccc(CCNS(=O)(=O)c2ccc(C)cc2)cc1OC [Compound 3l, N-(3,4-Dimethoxyphenethyl)-4-methylbenzenesulfonamide] | 0.764 ± 0.54 µM | – | 1170 ± 1000 nM | % inhibition CA II (hCA II; CA II, at 100 μM): 32%; inhibition at 100 µM (hCA II; read-out: % inhibition CA II, CA II, at 100 μM): < 50%
8 | COc1ccc(S(=O)(=O)NC(c2ccccc2)c2ccccc2)cc1 [Compound 3m, N-Benzhydryl-4-methoxybenzenesulfonamide] | – | 507 ± 400 nM | 1400 ± 570 nM | –

The next lines start with results.

Row | IC50 (hCA IX; CA IX) | IC50 (hCA II) | IC50 (hCA XII) | Compound | also measured
9 | 1.2 ± 0.75 µM | 1300 ± 510 nM | – | Cc1ccc(S(=O)(=O)Nc2ccccc2)cc1 [Compound 3a, 4-Methyl-N-phenylbenzenesulfonamide] | –
10 | 1.06 ± 0.63 µM | 1550 ± 800 nM | 700 ± 200 nM | Cc1ccc(S(=O)(=O)Nc2c(C)cccc2C)cc1 [Compound 3c, N-(2,6-Dimethylphenyl)-4-methylbenzenesulfonamide] | –
11 | 1.98 ± 0.61 µM | 1070 ± 820 nM | 860 ± 280 nM | Cc1ccc(S(=O)(=O)NCc2ccccc2)cc1 [Compound 3f, N-benzyl-4-methylbenzenesulfonamide] | –
12 | 0.62 ± 0.2 µM | 2500 ± 1500 nM | 1120 ± 1000 nM | Cc1ccc(S(=O)(=O)Nc2ccc(C)c(C)c2)cc1 [Compound 3j, N-(3,4-Dimethylphenyl)-4-methylbenzenesulfonamide] | –
